Assay results from PubChem BioAssay (NCI).
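The compound was tested at five concentrations on cells cultured in 96-well plates, with a 48-hour exposure period. At the GI50, growth is halved. Definition used: TGI = concentration required for complete inhibition of growth.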

Columns and labels:
Test in all cases: DTP human tumour cell line panel, 48 h
[1] = tested on: SW-620 colon
[2] = tested on: IGROV1 ovarian
[3] = tested on: HOP-62 NSCLC
[4] = tested on: SR leukemia
[5] = tested on: M14 melanoma
[6] = tested on: NCI-H23 lung
[7] = tested on: COLO 205 colon
[8] = tested on: TK-10 renal
[9] = tested on: MDA-MB-435
[10] = tested on: SF-268 CNS
[11] = tested on: NCI-H226 lung
[12] = tested on: LOX IMVI melanoma
[13] = tested on: MCF7 breast
[14] = tested on: ACHN renal
[15] = tested on: K-562 leukemia
[16] = tested on: OVCAR-8 ovarian
[17] = tested on: HCC-2998 colon
[18] = tested on: SK-OV-3 ovarian
[19] = tested on: EKVX NSCLC
[20] = tested on: HS 578T breast
[21] = tested on: SK-MEL-5 melanoma
[22] = tested on: HOP-92 NSCLC
[23] = tested on: CAKI-1 renal
[24] = tested on: U251 CNS
[25] = tested on: OVCAR-5 ovarian
[26] = tested on: A549 NSCLC
[27] = tested on: HL-60(TB) leukemia
[28] = tested on: MDA-MB-468 breast
[29] = tested on: T-47D breast
[30] = tested on: MALME-3M melanoma
[31] = tested on: HCT-15 colon
[32] = tested on: PC-3 prostate
[33] = tested on: SF-539 CNS
[34] = tested on: HT29 colon
[35] = tested on: NCI-H460 lung
[36] = tested on: MOLT-4 leukemia
[37] = tested on: RPMI-8226 leukemia
[38] = tested on: 786-0 renal
[39] = tested on: SF-295 CNS
[40] = tested on: OVCAR-3 ovarian
[41] = tested on: UACC-257 melanoma
[42] = tested on: A498 renal
[43] = tested on: HCT-116 colon
[44] = tested on: NCI-H522 lung
[45] = tested on: CCRF-CEM leukemia
[46] = tested on: BT-549 breast
[47] = tested on: SNB-19 CNS
[48] = tested on: RXF 393 renal
[49] = tested on: SK-MEL-28 melanoma
[50] = tested on: DU-145 prostate
[51] = tested on: OVCAR-4 ovarian
[52] = tested on: NCI/ADR-RES ovarian
[53] = tested on: SN12C renal
[54] = tested on: UACC-62 melanoma
[55] = tested on: KM12 colon

## CS(=O)(=O)Nc1ccc(-c2ccc3c(c2)ncn3-c2ccc(NC(=O)Nc3ccc(Br)cc3)cc2)cc1
[1]
  GI50: 3.05 µM
  TGI: > 72.3 µM
[2]
  GI50: 3.17 µM
  TGI: > 72.3 µM
[3]
  GI50: 2.54 µM
  TGI: 13 µM
[4]
  GI50: 1.39 µM
  TGI: 3.47 µM
[5]
  GI50: 2.36 µM
  TGI: > 72.3 µM
[6]
  GI50: 2.57 µM
  TGI: > 72.3 µM
[7]
  GI50: 2.59 µM
  TGI: > 72.3 µM
[8]
  GI50: 3.32 µM
  TGI: > 72.3 µM
[9]
  GI50: 2.62 µM
  TGI: > 72.3 µM
[10]
  GI50: 3.41 µM
  TGI: > 72.3 µM
[11]
  GI50: 3.08 µM
  TGI: > 72.3 µM
[12]
  GI50: 2.64 µM
  TGI: 44.3 µM
[13]
  GI50: 1.81 µM
  TGI: 7.89 µM
[14]
  GI50: 2.55 µM
  TGI: 12.3 µM
[15]
  GI50: 1.88 µM
  TGI: 4.91 µM
[16]
  GI50: 2.81 µM
  TGI: > 72.3 µM
[17]
  GI50: 3.32 µM
  TGI: > 72.3 µM
[18]
  GI50: 2.92 µM
  TGI: > 72.3 µM
[19]
  GI50: 2.4 µM
  TGI: > 72.3 µM
[20]
  GI50: 2.42 µM
  TGI: > 72.3 µM
[21]
  GI50: 2.35 µM
  TGI: 7.81 µM
[22]
  GI50: 3.39 µM
  TGI: > 72.3 µM
[23]
  GI50: 6 µM
  TGI: > 72.3 µM
[24]
  GI50: 2.4 µM
  TGI: > 72.3 µM
[25]
  GI50: 3.4 µM
  TGI: > 72.3 µM
[26]
  GI50: 2.44 µM
  TGI: > 72.3 µM
[27]
  GI50: 1.49 µM
  TGI: 3.33 µM
[28]
  GI50: 2.26 µM
  TGI: 10.9 µM
[29]
  GI50: 2.75 µM
  TGI: > 72.3 µM
[30]
  GI50: 1.95 µM
  TGI: 5.94 µM
[31]
  GI50: 2.4 µM
  TGI: > 72.3 µM
[32]
  GI50: 2.69 µM
  TGI: > 72.3 µM
[33]
  GI50: 0.83 µM
  TGI: 7.64 µM
[34]
  GI50: 2.43 µM
  TGI: > 72.3 µM
[35]
  GI50: 2.64 µM
  TGI: > 72.3 µM
[36]
  GI50: 1.37 µM
  TGI: 4.31 µM
[37]
  GI50: 1.52 µM
  TGI: 3.85 µM
[38]
  GI50: 2.25 µM
  TGI: 16 µM
[39]
  GI50: 1.57 µM
  TGI: 4.41 µM
[40]
  GI50: 2.76 µM
  TGI: > 72.3 µM
[41]
  GI50: 2.17 µM
  TGI: 7.89 µM
[42]
  GI50: 3.42 µM
  TGI: 21.5 µM
[43]
  GI50: 2.33 µM
  TGI: > 72.3 µM
[44]
  GI50: 2.11 µM
  TGI: 31.2 µM
[45]
  GI50: 2.12 µM
  TGI: 7.23 µM
[46]
  GI50: 2.64 µM
  TGI: 12.8 µM
[47]
  GI50: 2.57 µM
  TGI: > 72.3 µM
[48]
  GI50: 1.16 µM
  TGI: 4.56 µM
[49]
  GI50: 2.18 µM
  TGI: > 72.3 µM
[50]
  GI50: 3.36 µM
  TGI: > 72.3 µM
[51]
  GI50: 3.13 µM
  TGI: > 72.3 µM
[52]
  GI50: 10.8 µM
  TGI: > 72.3 µM
[53]
  GI50: 2.37 µM
  TGI: > 72.3 µM
[54]
  GI50: 2.25 µM
  TGI: 9.2 µM
[55]
  GI50: 0.336 µM
  TGI: > 72.3 µM
